According to patent US10201516B2 (The Regents of the University of California, priority 2014, dated 2019):
“Also recorded” adds a separate entry of the source.

Experiments:
[1] = test system: K-Ras and CaM interaction; assay: CaM pull-down assay of K-Ras/calmodulin interaction; format: cell-based; details: Ras^V12-transformed cells and multiple human pancreatic cancer cell lines (FIG. 5H)
PANC1 and PANC2.13 = assay: Morphology, viability and proliferating rate of human pancreatic cancer cell lines; format: cell-based
Description: The dead cells were removed, and MTS assay (Promega, G5430) was performed for determining the percentage of viable cells, according to the manufacturer's instructions. DMSO was used as vehicle control and for normalization.

[2] = Toxicity by body weight changes in treated mice; format: in vivo, mouse; details: oral or i.p. prostratin (FIG. 13D)
Description: (§1) The drug was daily administrated into either NOD-SCID or athymic nude mice by oral gavages (OG) at 1 mg/kg or intraperitoneal (I.P) injection at 0.5 mg/kg. 10% DMSO, 10% cremophor, and 80% saline solutions were used as the solvent and vehicle control.

[3] = test system: PANC2.13 and PANC1 orthotopic tumors; assay: Prevention of orthotopic human pancreatic tumors in NOD-SCID mice; format: in vivo, mouse
Description: as §1

[4] = test system: PANC2.13 and PANC2.03 orthotopic tumors; assay: Established orthotopic human pancreatic tumors, burden by human cfDNA in plasma; format: in vivo, mouse; details: treatment from 14th day post-implantation, over time (FIG. 7B)
Description: as §1
All blood samples were collected in K2EDTA containing tubes (BD Microtainer, Ref 365974) and centrifuged at 1,500 g for 10 min. Then the supernatants were carefully collected from the top portion of the plasma to eliminate the possibility of cell contaminations. The plasma was stored at −80° C. until further use. The cfDNA was extracted from 100 μL of plasma using NucleoSpin Plasma XS kit (Macherey-Nagel; 740900).
Nucleic acid concentrations in all plasma samples were measured by quantitative polymerase chain reaction (PCR) using the AB7900HT (Applied Biosystems, Foster City, CA, USA) and TaqMan Universal PCR Master Mix (Applied Biosystems) according to the manufacturer's protocol. For quantification of human β-actin genomic DNA in mouse plasma samples, the following custom primers and probe sets were used: […]

HIV-1 = details: cited from earlier work
[5] = human pancreatic cancer cells (FIG. 14A right)

Structure (SMILES): CC(=O)O[C@@]12C[C@@H](C)[C@@]3(O)C(C=C(CO)C[C@]4(O)C(=O)C(C)=C[C@@H]34)[C@@H]1C2(C)C (stereo partly shown) [prostratin, 12-deoxyphorbol-13-acetate]
- endogenous interaction between K-Ras and CaM [1]: abolished the endogenous interaction between K-Ras and CaM
- cell morphology (PANC1 and PANC2.13; human pancreatic cancer cell lines with mutant K-Ras (FIG. 14A left)): cell morphological changes phenocopying those observed with knock-down of K-Ras or over-expression of Fzd8
- cell viability (PANC1 and PANC2.13; [5]): significantly reduced cell viability
- proliferating rate (PANC1 and PANC2.13; [5]): significantly reduced
- systemic toxicity (body weight changes) [2]: no evidence of systemic toxicity; also recorded: no systematically toxic effects
- sizes of orthotopic tumors by BLI ([3]; FIG. 6E and FIG. 14B): dramatically reduced the sizes of orthotopic tumors
- metastasis to the peritoneum ([3]; FIG. 6E and FIG. 14C): reduced metastasis to the peritoneum
- formation of primary tumors in the pancreas (H&E staining) ([3]; FIG. 6F and FIG. 14B): most of prostratin treated mice did not show formation of primary tumors in the pancreas
- Ki67 in orthotopic tumors ([3]; FIG. 6G and FIG. 14B): much lower Ki67
- tumor burden in the orthotopic sites ([3]; NOD-SCID mice, daily oral treatment, vs control): lower tumor burden
- concentration of human specific cfDNA [4]: dramatically decreased
- CD4 receptor (HIV-1; literature): down-regulating the CD4 receptor
- reactivation of latent HIV-1 (HIV-1; memory CD4+ T cells that harbor latent proviruses): reactivates HIV-1
